pKd: −log10 of the molar value.
Assays:
Experiment in all cases: ITC
Format in all cases: binding
[1] = target: T1, PAS1(23–168); dimerization helix-containing PAS1 of TodS (Pseudomonas putida, UniProt A5W4E3, I114V)
T1 construct: PAS1 sensor domain with dimerization helix, residues 23-168; N-terminal His6 tag kept; E. coli C41(DE3); dimer in solution

[2] = target: T2, PAS1(23–168); dimerization helix-containing PAS1 of TodS (Pseudomonas putida, UniProt A5W4E3)
T2 construct: PAS1 sensor domain with dimerization helix, residues 23-168; N-terminal His6 tag kept; E. coli C41(DE3); dimer in solution

[3] = target: T3, PAS1(23–168); dimerization helix-containing PAS1 of TodS (Pseudomonas putida, UniProt A5W4E3, W85H)
T3 construct: PAS1 sensor domain with dimerization helix, residues 23-168; N-terminal His6 tag kept; E. coli C41(DE3); dimer in solution

[4] = target: T4, PAS1(23–168); dimerization helix-containing PAS1 of TodS (Pseudomonas putida, UniProt A5W4E3, F79Y)
T4 construct: PAS1 sensor domain with dimerization helix, residues 23-168; N-terminal His6 tag kept; E. coli C41(DE3); dimer in solution

[5] = target: T5, PAS1(23–168); dimerization helix-containing PAS1 of TodS (Pseudomonas putida, UniProt A5W4E3, F46A)
T5 construct: PAS1 sensor domain with dimerization helix, residues 23-168; N-terminal His6 tag kept; E. coli C41(DE3); dimer in solution

[6] = target: T6, PAS1(23–168); dimerization helix-containing PAS1 of TodS (Pseudomonas putida, UniProt A5W4E3, E146A)
T6 construct: PAS1 sensor domain with dimerization helix, residues 23-168; N-terminal His6 tag kept; E. coli C41(DE3); dimer in solution

[7] = target: T7, PAS1(23–168); dimerization helix-containing PAS1 of TodS (Pseudomonas putida, UniProt A5W4E3, V59A)
T7 construct: PAS1 sensor domain with dimerization helix, residues 23-168; N-terminal His6 tag kept; E. coli C41(DE3); dimer in solution
T7 sequence (A5W4E3 23-168 V59A): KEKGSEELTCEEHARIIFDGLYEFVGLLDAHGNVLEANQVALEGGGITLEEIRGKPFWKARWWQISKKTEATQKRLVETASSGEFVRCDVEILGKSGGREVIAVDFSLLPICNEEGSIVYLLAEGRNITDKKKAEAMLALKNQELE

T2 sequence (A5W4E3 23-168): as the sequence (A5W4E3 23-168 V59A) above, with A37V counted along it
T1 sequence (A5W4E3 23-168 I114V): as the sequence (A5W4E3 23-168 V59A) above, with A37V, I92V counted along it
T3 sequence (A5W4E3 23-168 W85H): as the sequence (A5W4E3 23-168 V59A) above, with A37V, W63H counted along it
T4 sequence (A5W4E3 23-168 F79Y): as the sequence (A5W4E3 23-168 V59A) above, with A37V, F57Y counted along it
T6 sequence (A5W4E3 23-168, stated change not applied): as the sequence (A5W4E3 23-168 V59A) above, with A37V counted along it
T5 sequence (A5W4E3 23-168 F46A): as the sequence (A5W4E3 23-168 V59A) above, with F24A, A37V counted along it

SMILES	pKd [1]	pKd [2]	pKd [3]	pKd [4]	pKd [5]	pKd [6]	pKd [7]
Cc1cccc(C)c1 [m-xylene]	5.21	5.02					
Cc1ccccc1 [toluene]	5.08	5.07	4.97	4.15	4.02	5.02	4.84

From PMC4861429, “Molecular Insights into Toluene Sensing in the TodS/TodT Signal Transduction System” (The Journal of Biological Chemistry, 2016)
